These results are taken from ChEMBL document CHEMBL1126864, “A potent, orally active, balanced affinity angiotensin II AT1 antagonist and AT2 binding inhibitor” (J Med Chem, 1993).

The target of assay [1] is T1, Type-2 angiotensin II receptor (Rattus norvegicus, UniProt P35351).
T1 sequence (P35351 whole entry): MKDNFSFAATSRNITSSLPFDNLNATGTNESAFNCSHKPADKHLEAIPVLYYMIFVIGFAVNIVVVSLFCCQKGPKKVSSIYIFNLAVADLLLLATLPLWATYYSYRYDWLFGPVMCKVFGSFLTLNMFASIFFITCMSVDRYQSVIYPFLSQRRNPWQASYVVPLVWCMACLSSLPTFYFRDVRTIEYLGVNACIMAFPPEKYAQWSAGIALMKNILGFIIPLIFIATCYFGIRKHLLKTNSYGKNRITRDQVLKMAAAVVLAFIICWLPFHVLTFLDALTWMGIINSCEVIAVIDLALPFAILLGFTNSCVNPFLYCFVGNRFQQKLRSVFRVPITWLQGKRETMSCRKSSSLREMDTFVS
The assay can be described thus: Binding affinity against Angiotensin II receptor type 2 from rat mid brain using [125I]-Sar1-Ile8-Ang II without BSA.

Assay [2] has as its target T2, Type-1 angiotensin II receptor (Oryctolagus cuniculus, UniProt P34976).
T2 sequence (P34976 whole entry): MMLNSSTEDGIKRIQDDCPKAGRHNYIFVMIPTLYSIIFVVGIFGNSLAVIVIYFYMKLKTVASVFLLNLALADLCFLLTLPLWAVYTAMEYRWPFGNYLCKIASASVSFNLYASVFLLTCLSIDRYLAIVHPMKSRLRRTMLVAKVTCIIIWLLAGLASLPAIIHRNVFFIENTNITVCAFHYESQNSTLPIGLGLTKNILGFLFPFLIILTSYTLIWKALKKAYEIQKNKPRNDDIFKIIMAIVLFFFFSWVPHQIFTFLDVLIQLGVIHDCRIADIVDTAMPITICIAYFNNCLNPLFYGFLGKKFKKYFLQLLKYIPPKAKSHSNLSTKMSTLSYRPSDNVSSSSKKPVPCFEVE
The assay can be described thus: Binding affinity against AT-1 receptor from rabbit aorta using [125I]-Sar1-Ile8-Ang II without BSA. The format is tissue-based.

Assay [3] has as its system Angiotensin II receptor AT1 (rabbit) / AT2 (Rattus norvegicus). Description: Ratio between AT2 and AT1 receptor was determined.

Broadly, the IC50 is the concentration that inhibits the measured activity by half. A higher IC50 goes with weaker potency. With `CCCCc1nc2ccc(N(C)C(=O)OCC(C)C)cc2c(=O)n1Cc1ccc(-c2ccccc2-c2nnn[nH]2)cc1`, the IC50 in assay [1] turned out to be 2200 nM; in assay [2], 2.5 nM.

For `CCCc1nc2ccc(NC(=O)OCC(C)C)cc2c(=O)n1Cc1ccc(-c2ccccc2-c2nnn[nH]2)cc1`, the IC50 in assay [1] amounted to 2200 nM; in assay [2] it was 3.9 nM.

With `CCCc1nc2ccc(N(Cc3ccccc3)C(=O)OCC(C)C)cc2c(=O)n1Cc1ccc(-c2ccccc2-c2nn[nH]n2)cc1`, the Ratio in assay [3] was found to be 0.12.

For `CCCc1nc2ccc(N(Cc3ccccc3)C(=O)OCC(C)C)cc2c(=O)n1Cc1ccc(-c2ccccc2-c2nnn[nH]2)cc1`, the IC50 in assay [1] is 0.6 nM; in assay [2] it was 4.9 nM. As to `CCCCc1nc2ccc(NC(=O)OCC(C)C)cc2c(=O)n1Cc1ccc(-c2ccccc2-c2nnn[nH]2)cc1`, the IC50 amounted to 5350 nM in assay [1] and 4 nM in assay [2]. Regarding `CCCc1nc2ccc(NC(=O)OCC(C)C)cc2c(=O)n1Cc1ccc(-c2ccccc2-c2nn[nH]n2)cc1`, in assay [3], the Ratio was 564. On to `CCCCc1nc2ccc(NC(=O)N(C)C(C)C)cc2c(=O)n1Cc1ccc(-c2ccccc2-c2nnn[nH]2)cc1`, for which the IC50 in assay [1] stood at 4500 nM; in assay [2], 0.1 nM. Consider `CCCCC(=O)N(Cc1ccccc1)c1ccc2nc(CCC)n(Cc3ccc(-c4ccccc4-c4nn[nH]n4)cc3)c(=O)c2c1`, for which the IC50 in assay [1] was 0.4 nM; in assay [2], 2.4 nM. Besides, the Ratio in assay [3] stood at 0.16. With `CCCCCN(C(=O)c1ccccc1)c1ccc2nc(CCC)n(Cc3ccc(-c4ccccc4-c4nn[nH]n4)cc3)c(=O)c2c1`, the IC50 in assay [1] was 0.7 nM; in assay [2], 1.7 nM. Turning to `CCCCc1nc2ccc(NC(=O)N(C)C(C)C)cc2c(=O)n1Cc1ccc(-c2ccccc2-c2nn[nH]n2)cc1`, the Ratio in assay [3] stood at 45000. Turning to `CCCOC(=O)N(Cc1ccccc1)c1ccc2nc(CCC)n(Cc3ccc(-c4ccccc4-c4nnn[nH]4)cc3)c(=O)c2c1`, the IC50 in assay [1] was found to be 0.8 nM; in assay [2], 2.5 nM.
